Test: xn = mol fraction of the nth substance listed
Conditions: 100 kPa, Liquid; for viscosity: Concentric cylinders viscometry; for mass density: Vibrating tube method

Nc1ccccc1 [aniline] + CC(C)O
Conditions	mass density [kg/m3]	viscosity [mPa·s]
293.15 K, x1 = 0.0813	809.7	2.291
293.15 K, x1 = 0.1599	832	2.176
293.15 K, x1 = 0.2396	853.7	2.12
293.15 K, x1 = 0.349	882	2.1
293.15 K, x1 = 0.4402	904.3	2.17
293.15 K, x1 = 0.5598	932.1	2.33
293.15 K, x1 = 0.6501	952	2.54
293.15 K, x1 = 0.74	971	2.81
293.15 K, x1 = 0.8499	993.2	3.31
293.15 K, x1 = 0.9402	1010.6	3.93
293.15 K, x1 = 1	1021.7	4.37
298.15 K, x1 = 0.0813	805.3	1.963
298.15 K, x1 = 0.1599	827.5	1.86
298.15 K, x1 = 0.2396	849.2	1.8
298.15 K, x1 = 0.349	877.4	1.78
298.15 K, x1 = 0.4402	899.7	1.84
298.15 K, x1 = 0.5598	927.6	1.98
298.15 K, x1 = 0.6501	947.5	2.16
298.15 K, x1 = 0.74	966.5	2.39
298.15 K, x1 = 0.8499	988.8	2.84
298.15 K, x1 = 0.9402	1006.2	3.39
298.15 K, x1 = 1	1017.4	3.8
303.15 K, x1 = 0.0813	800.8	1.651
303.15 K, x1 = 0.1599	823	1.56
303.15 K, x1 = 0.2396	844.6	1.5
303.15 K, x1 = 0.349	872.8	1.47
303.15 K, x1 = 0.4402	895.1	1.48
303.15 K, x1 = 0.5598	923	1.58
303.15 K, x1 = 0.6501	942.9	1.7
303.15 K, x1 = 0.74	961.9	1.9
303.15 K, x1 = 0.8499	984.2	2.27
303.15 K, x1 = 0.9402	1001.8	2.73
303.15 K, x1 = 1	1013.2	3.13
308.15 K, x1 = 0.0813	796.4	1.454
308.15 K, x1 = 0.1599	818.5	1.39
308.15 K, x1 = 0.2396	840	1.34
308.15 K, x1 = 0.349	868.2	1.3
308.15 K, x1 = 0.4402	890.6	1.3
308.15 K, x1 = 0.5598	918.5	1.36
308.15 K, x1 = 0.6501	938.5	1.48
308.15 K, x1 = 0.74	957.6	1.67
308.15 K, x1 = 0.8499	980	1.99
308.15 K, x1 = 0.9402	997.7	2.39
308.15 K, x1 = 1	1009	2.75
313.15 K, x1 = 0.0813	791.9	1.29
313.15 K, x1 = 0.1599	814	1.23
313.15 K, x1 = 0.2396	835.5	1.18
313.15 K, x1 = 0.349	863.6	1.15
313.15 K, x1 = 0.4402	885.9	1.14
313.15 K, x1 = 0.5598	913.8	1.2
313.15 K, x1 = 0.6501	933.9	1.3
313.15 K, x1 = 0.74	953.1	1.48
313.15 K, x1 = 0.8499	975.6	1.79
313.15 K, x1 = 0.9402	993.3	2.13
313.15 K, x1 = 1	1004.7	2.43
318.15 K, x1 = 0.0813	787.2	1.125
318.15 K, x1 = 0.1599	809.2	1.076
318.15 K, x1 = 0.2396	830.7	1.043
318.15 K, x1 = 0.349	858.9	1.02
318.15 K, x1 = 0.4402	881.2	1.03
318.15 K, x1 = 0.5598	909.2	1.08
318.15 K, x1 = 0.6501	929.2	1.166
318.15 K, x1 = 0.74	948.5	1.34
318.15 K, x1 = 0.8499	971.1	1.6
318.15 K, x1 = 0.9402	988.9	1.9
318.15 K, x1 = 1	1000.4	2.14
323.15 K, x1 = 0.0813	782.4	0.97
323.15 K, x1 = 0.1599	804.3	0.91
323.15 K, x1 = 0.2396	825.7	0.88
323.15 K, x1 = 0.349	853.8	0.85
323.15 K, x1 = 0.4402	876.2	0.86
323.15 K, x1 = 0.5598	904.1	0.91
323.15 K, x1 = 0.6501	924.2	1.01
323.15 K, x1 = 0.74	943.4	1.18
323.15 K, x1 = 0.8499	966.1	1.45
323.15 K, x1 = 0.9402	984	1.74
323.15 K, x1 = 1	995.5	1.96
